Key:
[1] = system: d(TTAGGG)4 (HT24), G4 structure of human telomere; test: CD and 1H NMR spectra: conversion of G4 structure conformation of HT24 in K+ or Na+ solution; format: binding; conditions: for formation of G4 structures and conversion of G4 structures of human telomeres from nonparallel to parallel forms: K+ solution, summary statement; for CD spectral change before and after annealing: 5 μM HT24, 1 eq. compound
Method: (§1) All oligonucleotides were purchased from Bio Basic Inc. and used without further purification, including the single strand sequence derived from telomere of human chromosome, d(TTAGGG)4 (HT24) (SEQ ID NO: 1). Solutions of 10 mM Tris-HCl (pH 7.5) and its mixed solutions with KCl were mixed with each DNA sample and heated to 95° C. for 10 min first, cooled slowly to room temperature, and then stored for 48 h at 4° C. before use.
It is well-known that the linear parallel G4 structures, such as a propeller form, give a positive band at around 265 nm and a negative band at around 240 nm, while the anti-parallel G4 structures, such as a basket or chair form, show two positive bands at around 295 nm and 240 nm and a negative band at around 265 nm. In addition, the hybrid type G4 structures (3+1, including 3 parallel and 1 anti-parallel G4 structures) give a positive CD band at around 290 nm and a positive shoulder band at around 265 nm. The anti-parallel and hybrid type are both so-called “non-parallel” G4 structures. These spectral features are mainly attributed to the specific guanine stacking in various G4 structures.
(§2) J-815 spectropolarimeter (Jasco, Japan) with a 2 nm bandwidth at a 50 nm/min scan speed and a 0.2 nm step resolution was used to obtain CD spectra, and the following data was provided as an average of 10 scan results. The CD spectra were measured by monitoring the G4 structures under N2 over the range of 210 nm to 350 nm, and the thermal melting curves, as a function of temperature, were obtained by monitoring the CD intensity at 265 nm. Three independently scans were recorded for each sample. The melting temperature (Tm) was measured from the first differentiation of the melting curve.
5 μM HT24 and 1 eq. BMVC-8C3O (the equivalence ratio of HT24:BMVC-8C30 is 1:1) were used to detect whether BMVC-8C3O could convert the G4 structure conformation of HT24 from non-parallel to parallel.
The CD spectra of the HT24 and its complexes with 1 eq. BMVC-8C3O mixed in a 150 mM K^+ solution or in a 150 mM Na^+ solution were measured right after the mixing step under room temperature, as shown in FIGS. 2A and 2B (+BMVC-8C3O×1). Another set of spectra were obtained after these samples were annealed, i.e. heated at 95° C., and then gradually cooled down to room temperature (+BMVC-8C3O×1 anneal). […] These spectral features are consistent with the spectral changes of d[G3(T2AG3)3] (HT21) in K^+ or Na^+ solution upon the addition of 40% PEG (see Xue et al., 2007). That is to say, the peak at 265 nm (parallel G4 structure) increases and the peak at 290 nm (non-parallel G4 structure) decreases. This is, BMVC-8C3O and 40% PEG can converse the G4 structures from the non-parallel to the parallel.
BMVC-8C3O at 37° C., as a function of time.
In addition, 0.1 mM HT24 was mixed with 5 eq. BMVC-8C3O and dissolved in a H2O/D2O (90%/10%) solution containing 10 mM tris-HCl (pH 7.5) and 150 mM KCl to prepare samples for NMR (control sample was without BMVC-8C3O). Then the imino protons in the chemical shift range of 9-14 ppm were measured on a Bruker AVIII 800 MHz spectrometer using a pulsed-gradient spin-echo sequence with a selective refocusing pulse, and the chemical shift was measured relative to a D2O solution of DSS as an external reference. […] The NMR spectra show significant changes after adding 5 eq.
When 1 eq. […] However, when the concentration of BMVC-8C3O is increasing, the necessity of the annealing step decreases. For example, 5 eq. BMVC-8C3O induces spectra changes of the complex of HT24 and BMVC-8C3O in 150 mM K^+ solution at 37° C. (converting from non-parallel to parallel), and the annealing step is not necessary (see FIG. 2C).

[2] = system: d(TTAGGG)4 (HT24), G4 structure of human telomere; test: CD thermal melting curve (265 nm) of HT24 G4 structure; format: binding
Method: as §1, §2
The BMVC-8C3O of the present invention can not only induce the formation of G4 structures, but also stabilize G4 structures. FIGS. 3A and 3B show the CD spectra of HT24 and its complex with 5 eq. BMVC-8C3O in 5 mM K^+ solution at 25° C. and 95° C., respectively. […] BMVC-8C3O in 5 mM or 150 mM K^+ solution at 265 nm, as a function graph of temperature. After adding 5 eq. BMVC-8C3O at 37° C.

CL1-0 lung cancer cells = test: Long-term cell proliferation curve, CL1-0 cancer cells; format: cell-based; conditions: long-term treated with 1.0 μM
Method: (§3) CL1-0 lung cancer cells and MRC-5 normal human lung fibroblasts were used in the following experiments, wherein CL1-0 cells were cultured in RPMI-1640 medium containing 10% FBS (fetal bovine serum) and 1% antibiotics (including penicillin and streptomycin), and MRC-5 cells were cultured in MEM medium containing 10% FBS and 1% antibiotics.
(§4) When these cells were subcultured, culture medium containing 1.0 μM BMVC-8C3O (1% DMSO for the control) was used to separate these cells into 5×10^5 cells/petri dish having a diameter of 6 cm. After 2 or 3 days, these cells were trypsinized and counted, and subcultured again with the same density and method. Cells were subcultured repeatedly until the total cell number was less than 5×10^5.
(§5) FIGS. 4A and 4B show the cell proliferation curves of CL1-0 cancer cells and MRC-5 normal cells that long-term treated with 1.0 μM BMVC-8C3O. From FIG. 4A, it is obvious that the proliferation of CL1-0 cancer cells is slowed from around day 10, and stopped at around day 20.

[3] = system: d(TTAGGG)4 (HT24), single strand sequence derived from telomere of human chromosome; test: CD spectra: induction of G4 structure formation of HT24 under a salt-deficient condition; format: binding; conditions: 20 μM HT24, salt-deficient condition, room temperature, HT24:BMVC-8C3O 1:0 to 1:10
Method: as §1
First, circular dichroism spectroscopy (CD spectra) was used to examine whether BMVC-8C3O could induce the formation of G4 structure of human telomere, HT24, under a salt-deficient condition (Chang et al., 2007; Bugaut et al., 2008; Giraldo et al., 1994). […]
J-815 spectropolarimeter (Jasco, Japan) with a 2 nm bandwidth at a 50 nm/min scan speed and a 0.2 nm step resolution was used to obtain CD spectra, and the following data was provided as an average of 10 scan results. The CD spectra were measured by monitoring the G4 structures under N2 over the range of 210 nm to 350 nm, and the thermal melting curves, as a function of temperature, were obtained by monitoring the CD intensity at 265 nm. Three independently scans were recorded for each sample. The melting temperature (Tm) was measured from the first differentiation of the melting curve. […]

[4] = system: MRC-5 normal human lung fibroblasts; test: Long-term cell proliferation curve, MRC-5 normal cells; format: cell-based; conditions: long-term treated with 1.0 μM
Method: as §3, §4, §5

C[n+]1ccc(C=Cc2ccc3[nH]c4ccc(C=Cc5cc[n+](C)cc5)cc4c3c2)cc1.[I-].[I-] [BMVC, 3,6-bis(1-methyl-4-vinylpyridinium)carbazole diiodide, reference compound]
formation of G4 structures and conversion of G4 structures of human telomeres from nonparallel to parallel forms [1]: cannot be achieved
increase of the melting temperature of the G4 structures of human telomeres ([2]; summary statement, conditions not given at the place): approximately 20 °C

C[n+]1ccc(C=Cc2ccc3c(c2)c2cc(C=Cc4cc[n+](C)cc4)ccc2n3CCOCCOCCOCC[N+]2(C)CCCCC2)cc1.[I-].[I-].[I-] [BMVC-8C3O, 3,6-Bis(1-methyl-4-vinylpyridium iodide)-9-(1-(1-methyl-piperidinium iodide)-3,6,9-trioxaundecane) carbazole]
day at which proliferation of CL1-0 cancer cells is stopped (CL1-0 lung cancer cells): ~20 days
day from which proliferation of CL1-0 cancer cells is slowed (CL1-0 lung cancer cells): ~10 days
CD spectral change before and after annealing ([1]; 150 mM K+ solution): significant spectral changes
CD spectral change before and after annealing ([1]; 150 mM Na+ solution): only CD intensity changes are observed
structural change of HT24 (imino proton 1H NMR spectra) ([1]; 0.1 mM HT24, 5 eq. compound, 150 mM KCl, 2 h and 12 h after adding): can induce the structural change of HT24
conversion of G4 structure conformation of HT24 from non-parallel to parallel (CD spectra) ([1]; 5 eq. compound, 150 mM K+ solution, 37° C., without annealing): can convert the conformation of G4 structures from non-parallel to parallel
formation of G4 structures and conversion of G4 structures of human telomeres from nonparallel to parallel forms [1]: can induce the formation of G4 structures and convert the G4 structures of human telomeres from nonparallel to parallel forms
induction of G4 structure formation of HT24 (CD spectra) [3]: can induce G4 formation under a salt-deficient condition
effect on proliferation of MRC-5 normal cells [4]: does not significantly affect
enhancement of melting temperature (Tm) of HT24 ([2]; 5 eq. compound, 37° C. 24 hours, 5 mM K+ solution): about 50 °C
melting temperature (Tm) of HT24 complex ([2]; 5 eq. compound, 37° C. 24 hours, 5 mM K+ solution, HT24 alone approximately 41° C.): > 90 °C

Source: US20130005720A1, “PHARMACEUTICAL COMPOSITION FOR TREATING CANCER AND APPLICATIONS THEREOF” (Academia Sinica, priority 2011, published 2013)
